In assay [1] the target is T1, MytiLec (Mytilus galloprovincialis, UniProt B3EWR1, T39A).
T1 construct: full-length from codon-optimised synthetic gene, initial Thr changed to Ala; N-terminal His6 tag cut by thrombin, product begins GSHMATF; E. coli BL21(DE3) RILP; homodimer 34 kDa
Description: ITC, single-site model; crystal structure […] Å. The format is binding. The settings on record: 10 mM HEPES pH 7.4, 100 mM NaCl, 298 K; averaged over three sites per monomer (one type of independent site); crystal shows alpha anomer at all six sites of the dimer.

Assay [2] deals with T1, MytiLec. Description: ITC, single-site model. As to conditions: 10 mM HEPES pH 7.4, 100 mM NaCl, 298 K; averaged over three sites per monomer (one type of independent site). The format is binding.
The target of assay [3] is MytiLec(F93DF94S) (Mytilus galloprovincialis).
Assay [4] has as its target Recombinant MytiLec (Mytilus galloprovincialis). Description: AUC; sedimentation velocity, 50 mM potassium phosphate pH 7.4, 0.1 M NaCl, 293 K, 50,000 rpm, absorbance at 280 nm, c(s) converted to c(M); wild-type protein.

T1 sequence (B3EWR1 39-187 T39A): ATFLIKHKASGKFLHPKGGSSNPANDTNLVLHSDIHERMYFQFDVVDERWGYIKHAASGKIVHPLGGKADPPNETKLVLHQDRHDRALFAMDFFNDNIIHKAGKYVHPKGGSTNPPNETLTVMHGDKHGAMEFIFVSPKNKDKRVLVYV

As to `CC(=O)N[C@H]1C(O)O[C@H](CO)[C@H](O)[C@@H]1O` (stereo partly shown) [GalNAc], binding at MytiLec [1] was put at a Kd of 130 µM.

At MytiLec [2], `OC[C@H]1OC(O)[C@H](O)[C@@H](O)[C@H]1O` (stereo partly shown) [galactose] yielded a Kd of 200 µM.

The compound MytiLec(F93DF94S) (natural protein) registered a haemagglutination activity on rabbit erythrocytes, monomer mutant against the dimer (times less than the dimer) in assay [3] of 10.

Turning to Recombinant MytiLec (natural protein), the stoichiometry N in assay [4] is 2.

(Values after paper PMC4913266, “Crystal structure of MytiLec, a galactose-binding lectin from the mussel Mytilus galloprovincialis with cytotoxicity against certain cancer cell types” (Scientific Reports, 2016).)
